According to patent US6288082A, “Substituted 3-cyanoquinolines” (priority 1999, dated 2001):
Converted amounts (≈) assume the structure as drawn. “And” between values parts separate entries of the source, which are not always exact repeats. Equal values may be shown once.

Columns and labels:
[1] = target: T1, Epidermal Growth Factor Receptor Kinase (EGF-R) (Homo sapiens, UniProt P00533); assay: Inhibition of Epidermal Growth Factor Receptor Kinase (EGF-R) Using Recombinant Enzyme; format: biochemical; conditions: for IC50: recombinant enzyme, RR-SRC peptide substrate
T1 construct: EGFR cDNA encoding amino acids 645-1186 preceded by Met-Ala-(His)6; Met-Ala-(His)6 (N); made in house; host or cells: Sf9 insect cells, recombinant baculovirus vHcEGFR52
T1 sequence (P00533 669-1210): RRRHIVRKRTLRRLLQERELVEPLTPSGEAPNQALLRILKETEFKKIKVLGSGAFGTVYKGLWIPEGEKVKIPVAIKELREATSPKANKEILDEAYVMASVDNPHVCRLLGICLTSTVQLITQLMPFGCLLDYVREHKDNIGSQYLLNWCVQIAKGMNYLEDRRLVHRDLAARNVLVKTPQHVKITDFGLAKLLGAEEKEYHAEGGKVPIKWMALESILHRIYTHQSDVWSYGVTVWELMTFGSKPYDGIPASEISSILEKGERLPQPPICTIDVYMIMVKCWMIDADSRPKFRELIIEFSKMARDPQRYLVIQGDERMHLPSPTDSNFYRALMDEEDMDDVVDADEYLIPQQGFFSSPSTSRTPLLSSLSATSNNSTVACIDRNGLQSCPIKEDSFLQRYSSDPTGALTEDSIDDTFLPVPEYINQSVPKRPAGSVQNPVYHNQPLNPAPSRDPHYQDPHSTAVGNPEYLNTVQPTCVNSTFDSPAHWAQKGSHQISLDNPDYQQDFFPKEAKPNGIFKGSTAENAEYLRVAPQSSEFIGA
Experimental: Inhibition of Epidermal Growth Factor Receptor Kinase (EGF-R) Using Recombinant Enzyme
Representative test compounds were evaluated for their ability to inhibit the phosphorylation of the tyrosine residue of a peptide substrate catalyzed by the enzyme epidermal growth factor receptor kinase. The peptide substrate (RR-SRC) has the sequence arg-arg-leu-ile-glu-asp-ala-glu-tyr-ala-ala-arg-gly. The enzyme used in this test procedure is the His-tagged cytoplasmic domain of EGFR. A recombinant baculovirus (vHcEGFR52) was constructed containing the EGFR cDNA encoding amino acids 645-1186 preceded by Met-Ala-(His)6. Sf9 cells in 100 mm plates were infected at an moi of 10 pfu/cell and cells were harvested 48 h post infection. A cytoplasmic extract was prepared using 1% Triton X-100 and applied to Ni-NTA column. After washing the column with 20 mM imidazole, HcEGFR was eluted with 250 mM imidazole (in 50 mM Na2 HPO4, pH 8.0, 300 mM NaCl). Fractions collected were dialyzed against 10 mM HEPES, pH 7.0, 50 mM NaCl, 10% glycerol, 1 ug/mL antipain and leupeptin and 0.1 mM Pefabloc SC. The protein was frozen in dry ice/methanol and stored -70° C.
Test compounds were made into 10 mg/mL stock solutions in 100% dimethylsulfoxide (DMSO). Prior to experiment, stock solutions were diluted to 500 uM with 100% DMSO and then serially diluted to the desired concentration with HEPES buffer (30 mM HEPES pH 7.4).
For the enzyme reaction, 10 uL of each inhibitor (at various concentrations) were added to each well of a 96-well plate. To this was added 3 uL of enzyme (1:10 dilution in 10 mM HEPES, pH 7.4 for final conc. of 1:120). This was allowed to sit for 10 min on ice and was followed by the addition of 5 ul peptide (80 uM final conc.), 10 ul of 4×Buffer (Table A), 0.25 uL ^33 P-ATP and 12 uL H2 O. The reaction was allowed to run for 90 min at room temperature and was followed by spotting the entire volume on to precut P81 filter papers. The filter discs were washed 2× with 0.5% phosphoric acid and radioactivity was measured using a liquid scintillation counter. […]
The inhibition data for representative compounds of the invention are shown below in TABLE 1. […] The % inhibition of the test compound was determined for at least three different concentrations and the IC50 value was evaluated from the dose response curve. The % inhibition was evaluated with the following formula: […]
where CPM(drug) is in units of counts per minute and is a number expressing the amount of radiolabled ATP (γ-^33 P) incorporated onto the RR-SRC peptide substrate by the enzyme after 90 minutes at room temperature in the presence of test compound as measured by liquid scintillation counting. CPM(control) is in units of counts per minute and was a number expressing the amount of radiolabled ATP (γ-^33 P) incorporated into the RR-SRC peptide substrate by the enzyme after 90 minutes at room temperature in the absence of test compound as measured by liquid scintillation counting. The CPM values were corrected for the background counts produced by ATP in the absence of the enzymatic reaction.

[2] = target: Epithelial Cell Kinase (ECK) (Homo sapiens, UniProt P29317); assay: Inhibition of Epithelial Cell Kinase (ECK); format: biochemical; conditions: biotinylated peptide substrate, pH 7.2
Epithelial Cell Kinase (ECK), sequence (P29317 24-976): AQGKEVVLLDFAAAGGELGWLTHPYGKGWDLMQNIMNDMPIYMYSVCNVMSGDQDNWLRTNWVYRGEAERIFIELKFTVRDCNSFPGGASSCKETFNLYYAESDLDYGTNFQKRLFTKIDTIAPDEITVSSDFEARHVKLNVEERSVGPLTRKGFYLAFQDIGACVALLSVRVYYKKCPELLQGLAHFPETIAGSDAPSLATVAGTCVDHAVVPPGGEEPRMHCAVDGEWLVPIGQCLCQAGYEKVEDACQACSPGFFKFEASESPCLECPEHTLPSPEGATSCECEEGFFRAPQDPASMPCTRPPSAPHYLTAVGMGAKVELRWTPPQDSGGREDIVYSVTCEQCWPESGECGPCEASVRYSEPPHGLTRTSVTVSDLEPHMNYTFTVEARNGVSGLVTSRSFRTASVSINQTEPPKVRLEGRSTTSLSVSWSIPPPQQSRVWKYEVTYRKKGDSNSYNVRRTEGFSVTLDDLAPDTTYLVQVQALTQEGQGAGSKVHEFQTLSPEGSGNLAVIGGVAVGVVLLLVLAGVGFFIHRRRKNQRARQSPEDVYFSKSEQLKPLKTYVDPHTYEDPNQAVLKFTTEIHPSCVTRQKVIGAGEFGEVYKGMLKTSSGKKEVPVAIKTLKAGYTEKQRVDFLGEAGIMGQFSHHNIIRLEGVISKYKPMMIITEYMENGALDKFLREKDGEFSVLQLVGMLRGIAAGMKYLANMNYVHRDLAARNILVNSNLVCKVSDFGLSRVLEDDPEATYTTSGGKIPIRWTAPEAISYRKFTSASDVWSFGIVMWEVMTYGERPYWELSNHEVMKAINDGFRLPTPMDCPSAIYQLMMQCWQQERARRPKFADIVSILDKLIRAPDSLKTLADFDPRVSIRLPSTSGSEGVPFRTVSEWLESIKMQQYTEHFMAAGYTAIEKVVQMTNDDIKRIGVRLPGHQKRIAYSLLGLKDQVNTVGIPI

[3] = target: T2, Kinase insert Domain containing Receptor (KDR) (Homo sapiens, UniProt P35968); assay: Inhibition of Kinase insert Domain containing Receptor (KDR; the catalytic domain of the VEGF receptor); format: biochemical; conditions: substrate E:Y 4:1, pH 7.2
T2 construct: KDR; the Catalytic Domain of the VEGF Receptor
T2 sequence (P35968 834-1162 limits assumed): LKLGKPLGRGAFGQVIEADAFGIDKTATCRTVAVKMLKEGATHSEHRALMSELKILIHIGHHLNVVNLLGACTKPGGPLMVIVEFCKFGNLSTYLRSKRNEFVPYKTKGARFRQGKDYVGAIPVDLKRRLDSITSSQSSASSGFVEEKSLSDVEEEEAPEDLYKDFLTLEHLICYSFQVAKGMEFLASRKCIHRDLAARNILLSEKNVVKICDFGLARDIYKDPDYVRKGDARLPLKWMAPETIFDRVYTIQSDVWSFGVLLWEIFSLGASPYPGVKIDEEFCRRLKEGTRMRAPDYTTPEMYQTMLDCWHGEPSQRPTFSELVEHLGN

[4] = tested on: human colon carcinoma SW620; conditions: 3 mg/kg/dose IP days 1-20, Day 7
MDA-MB-435 = assay: Inhibition of cancer cell growth as measured by cell number, MDA-MB-435; format: cell-based; conditions: Homo sapiens, MDA-MB-435, 48 h, MDA-MB-435, 48 hours exposure
Experimental: (§1) Inhibition of Cancer Cell Growth as Measured by Cell Number […] […] After 48 hours exposure to test compounds, cells were fixed with trichloroacetic acid, and stained with Sulforhodamine B. After washing with trichloroacetic acid, bound dye was solubilized in 10 mM Tris base and optical density was determined using plate reader. Under conditions of the assay the optical density is proportional to the number of cells in the well. […] The test procedure is described in details by Philip Skehan et. al, J.Natl. Canc. Inst., 82, 1107-1112 (1990). […] Information about some of the cell lines used in these test procedures is available from the American Type Tissue Collection: Cell Lines and Hybridomas, 1994 Reference Guide, 8th Edition.

SK-BR3 = assay: Inhibition of cancer cell growth as measured by cell number, SK-BR3; format: cell-based; conditions: Homo sapiens, SK-BR-3, 48 h, SK-BR3, 48 hours exposure
Experimental: as §1

A431 = assay: Inhibition of cancer cell growth as measured by cell number, A431; format: cell-based; conditions: Homo sapiens, A-431, 48 h, A431, 48 hours exposure
Experimental: as §1

3T3/c-erbb2 = assay: Inhibition of cancer cell growth as measured by cell number, 3T3/c-erbb2; format: cell-based; conditions: 3T3/c-erbb2, 48 hours exposure
Experimental: as §1

SW620 = assay: Inhibition of cancer cell growth as measured by cell number, SW620; format: cell-based; conditions: Homo sapiens, SW-620, 48 h, SW620, 48 hours exposure
Experimental: as §1

3T3 = assay: Inhibition of cancer cell growth as measured by cell number, 3T3; format: cell-based; conditions: Mus musculus, NIH3T3; 3T3, 48 hours exposure
Experimental: as §1

[5] = target: Mitogen Activated Protein Kinase (Mek-Erk); assay: Mitogen Activated Protein Kinase (MAPK) assay, coupled Mek-Erk; format: biochemical, human; conditions: MBP or Myc peptide substrate, pH 7.4
Experimental: Mitogen Activated Protein Kinase (MAPK) Assay
To evaluate inhibitors of the MAP (mitogen activated protein) kinase a two component coupled standard pharmacological test procedure, which measures phosphorylation of a serine/threonine residue in an appropriate sequence in the substrate in the presence and absence of a putative inhibitor, was used. Recombinant human MEK 1 (MAPKK) was first used to activate recombinant human ERK2 (MAPK) and the activated MAPK (ERK) was incubated with substrate (MBP peptide or MYC peptide) in the presence of ATP, Mg^+2 and radiolabeled ^33 P ATP. The phosphorylated peptide was captured on a P 81 phosphocellulose filter (paper filter or embedded in microtiter plate) washed and counted by scintillation methods.
The peptide substrates used in the assay are MBP, peptide substrate ([…]), or synthetic Myc substrate, ([…]·5 TFA. The recombinant enzymes used were prepared as GST fusion proteins of human ERK 2 and human MEK 1. Inhibitor samples were prepared as 10×stocks in 10% DMSO and an appropriate aliquot was used to deliver either 10 ug/ml for a single point screening dose or 100, 10, 1, and 0.1 uM final concentration for a dose response curve. Final DMSO concentrations were less than or equal to 1%.
The reaction was run as follows in 50 mM Tris kinase buffer, pH 7.4 in a reaction volume of 50 ul. The appropriate volume of kinase buffer and inhibitor sample was added to the tube. Appropriate dilution of enzyme was delivered to give 2-5 ug recombinant MAPK (Erk ) per tube. The inhibitor was incubated with MAPK (Erk) for 30 min at 0 deg. C. Recombinant Mek (MAPKK) (0.5-2.5 ug) or fully activated Mek (0.05-0.1 units) was added to activate the Erk and incubated for 30 min at 30° C. Then substrate and gamma ^33 P ATP was were added to give a final concentration of 0.5-1 mM MBPP or 250-500 uM Myc; 0.2-0.5 uCi gamma P 33 ATP/tube; 50 μM ATP final concentration. Samples were incubated at 30° C. for 30 minutes and the reaction was stopped by adding 25 μl of ice cold 10% TCA. After samples were chilled on ice for 30 min, 20 μl of sample was transferred onto P 81 phosphocellulose filter paper or appropriate MTP with embedded P 81 filter. Filter papers or MTP were washed 2 times with a large volume of 1% acetic acid, then 2 times with water. The filters or MTP were briefly air dried before addition of scintillant and samples were counted in the appropriate scintillation counter set up for reading ^33 P isotope. Samples included a positive control (activated enzyme plus substrate); a no enzyme control; a no substrate control; samples with different concentrations of putative inhibitor; and samples with reference inhibitors (other active compounds or non-specific inhibitors such as staurosporine or K252 B).
The raw data was captured as cpm. Sample replicates were averaged and corrected for background count. Mean cpm data was tabulated by group and % inhibition by a test compound was calculated as (corrected cpm control-corrected. cpm sample/control)×100=% inhibition. […] The results obtained for representative compounds of this invention are listed in TABLE 2 where there may be separate entries for the same compound; this is an indication that the compound was evaluated more than one time.

| SMILES | IC50 [1] [µM] | IC50 [2] | IC50 [3] [µM] | IC50 [5] | IC50 (3T3/c-erbb2) [µg/mL] | further results |
| --- | --- | --- | --- | --- | --- | --- |
| CCOc1cc2ncc(C#N)c(Nc3ccc4c(c3)NCC4)c2cc1OCC [Example 96, 4-(2,3-Dihydro-1H-indol-6-ylamino)-6,7-diethoxy-quinoline-3-carbonitrile] | > 10 | > 53.5 µM | 8.02 | – | – | inhibition at 0.5 µM ([1]; read-out: % Inh @ 0.5 μM): 6% |
| CCOc1cc2ncc(C#N)c(Nc3ccc4c(c3)OCO4)c2cc1OCC [Example 98, 4-(Benzo[1,3]dioxol-5-ylamino)-6,7-diethoxy-quinoline-3-carbonitrile] | – | – | 2.65 | – | – | – |
| CCOc1cc2ncc(C#N)c(Nc3ccc4cn[nH]c4c3)c2cc1OCC [Example 99, 6,7-Diethoxy-4-(1H-indazol-6-ylamino)-quinoline-3-carbonitrile] | – | – | – | – | – | Relative Tumor Growth Day 7 [4]: 3.80 |
| CCOc1cc2ncc(C#N)c(Nc3ccc4c(c3)OCCO4)c2cc1OCC [Example 105, 4-(2,3-Dihydro-benzo[1,4]dioxin-6-ylamino)-6,7-diethoxy-quinoline-3-carbonitrile] | – | > 51.1 µM | 76.6 | – | 0.375 (≈ 0.958 µM) | IC50 (MDA-MB-435): 0.235 µg/mL (≈ 0.6 µM); IC50 (SK-BR3): 0.281 µg/mL (≈ 0.718 µM); IC50 (A431): 0.27 µg/mL (≈ 0.69 µM); IC50 (SW620): 0.411 µg/mL (≈ 1.05 µM); IC50 (3T3): 0.853 µg/mL (≈ 2.18 µM) |
| CCOc1cc2ncc(C#N)c(Nc3ccc4c(c3)CCC4)c2cc1OCC [Example 108, 6,7-Diethoxy-4-(indan-5-ylamino)-quinoline-3-carbonitrile] | – | – | – | – | 0.198 (≈ 0.53 µM) | – |

Further lines, with some results ahead:

| IC50 [1] [µM] | IC50 [2] | IC50 [3] [µM] | IC50 [5] | SMILES | IC50 (3T3/c-erbb2) [µg/mL] | further results |
| --- | --- | --- | --- | --- | --- | --- |
| > 1 | – | – | – | CCOc1cc2ncc(C#N)c(Nc3ccc4cc[nH]c4c3)c2cc1OCC [Example 101, 6,7-Diethoxy-4-(1H-indol-6-ylamino)-quinoline-3-carbonitrile] | – | – |
| – | 0.155 µM and 0.036 µM | > 77.4 | > 100 µM and 50 µM | CCOc1cc2ncc(C#N)c(Nc3ccc4c(c3)CCC4=O)c2cc1OCC [Example 110, 6,7-Diethoxy-4-(1-oxo-indan-5-ylamino)-quinoline-3-carbonitrile] | 0.0311 (≈ 0.0803 µM) | IC50 (MDA-MB-435): 0.028 µg/mL (≈ 0.0723 µM); IC50 (SK-BR3): 0.0281 µg/mL (≈ 0.0725 µM); IC50 (A431): 0.0244 µg/mL (≈ 0.063 µM); IC50 (SW620): 0.0181 µg/mL (≈ 0.0467 µM); IC50 (3T3): 0.0923 µg/mL (≈ 0.238 µM) |
| > 1 | – | – | > 100 µM | CCOc1cc2ncc(C#N)c(Nc3ccc4c(c3)C(=O)OC4)c2cc1OCC [Example 111, 6,7-Diethoxy-4-(3-oxo-1,3-dihydro-isobenzofuran-5-ylamino)-quinoline-3-carbonitrile] | – | – |
| > 0.5 | – | – | 25 µM | CCOc1cc2ncc(C#N)c(Nc3ccc4cn[nH]c4c3)c2cc1OC [Example 115, 7-Ethoxy-4-(indazol-6-ylamino)-6-methoxy-quinoline-3-carbonitrile] | – | – |
| > 1 | – | – | > 100 µM | CCOc1cc2ncc(C#N)c(Nc3ccc4c(c3)C(=O)NCC(=O)N4C)c2cc1OCC [Example 127, 6,7-Diethoxy-4-(1-methyl-2,5-dioxo-2,3,4,5-tetrahydro-1H-benzo[e][1,4]diazepin-7-ylamino)-quinoline-3-carbonitrile] | – | – |
